This note sets out measurements from US10322131B2, “Hydroxyacid derivatives, a process for their preparation and pharmaceutical compositions containing them” (LES LABORATOIRES SERVIER, priority 2015, dated 2019).

The term IC50 denotes the concentration at which inhibition is half-maximal.

Chain of Mcl-1 protein (Q07820 whole entry): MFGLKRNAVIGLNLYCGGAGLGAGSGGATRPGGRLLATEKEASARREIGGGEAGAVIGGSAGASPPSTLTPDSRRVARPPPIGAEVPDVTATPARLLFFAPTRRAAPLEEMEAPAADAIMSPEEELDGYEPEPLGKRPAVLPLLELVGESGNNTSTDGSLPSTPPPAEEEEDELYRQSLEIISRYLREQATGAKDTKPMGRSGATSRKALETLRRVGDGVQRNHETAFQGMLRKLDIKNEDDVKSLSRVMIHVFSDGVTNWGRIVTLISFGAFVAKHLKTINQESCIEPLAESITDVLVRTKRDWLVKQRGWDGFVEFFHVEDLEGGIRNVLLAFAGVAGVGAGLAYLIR

The subject of one assay is H929 cells. Put plainly: In vitro cytotoxicity (MTT) on H929 multiple myeloma tumour line. In kind it is cell-based. The settings on record: Homo sapiens, NCI-H929, exposed 48 hours, Microculture Tetrazolium Assay. The procedure: The cytotoxicity studies were carried out on the H929 multiple myeloma tumour line.
The cells are distributed onto microplates and exposed to the test compounds for 48 hours.
The cell viability is then quantified by a colorimetric assay, the Microculture Tetrazolium Assay (Cancer Res., 1987, 47, 939-942).
Take `Cc1c(-c2c(-c3ccc(F)cc3)sc3ncnc(OC(Cc4ccccc4OCc4ccnc(-c5cccc(O)c5)n4)C(=O)O)c23)ccc(OCCN2CCN(C)CC2)c1Cl` [Example 1, (2R)-2-{[(5Sa)-5-{3-chloro-2-methyl-4-[2-(4-methylpiperazin-1-yl)ethoxy]phenyl}-6-(4-fluorophenyl)thieno[2,3-d]pyrimidin-4-yl]oxy}-3-(2-{[2-(3-hydroxyphenyl)pyrimidin-4-yl]methoxy}phenyl)propanoic acid]: the IC50 was 9.31 nM.
Still for that read-out and setting: next, `Cc1c(-c2c(-c3ccc(F)cc3)sc3ncnc(OC(Cc4ccccc4OCc4ccnc(-c5ccc(O)cc5)n4)C(=O)O)c23)ccc(OCCN2CCN(C)CC2)c1Cl` [Example 2, (2R)-2-{[(5Sa)-5-{3-chloro-2-methyl-4-[2-(4-methylpiperazin-1-yl)ethoxy]phenyl}-6-(4-fluorophenyl)thieno[2,3-d]pyrimidin-4-yl]oxy}-3-(2-{[2-(4-hydroxyphenyl)pyrimidin-4-yl]methoxy}phenyl)propanoic acid]: 15.9 nM; `Cc1c(-c2c(-c3ccc(F)cc3)sc3ncnc(OC(Cc4ccccc4OCc4ccnc(-c5cccc(CO)c5)n4)C(=O)O)c23)ccc(OCCN2CCN(C)CC2)c1Cl` [Example 3, (2R)-2-{[(5Sa)-5-{3-chloro-2-methyl-4-[2-(4-methylpiperazin-1-yl)ethoxy]phenyl}-6-(4-fluorophenyl)thieno[2,3-d]pyrimidin-4-yl]oxy}-3-[2-({2-[3-(hydroxymethyl)phenyl]pyrimidin-4-yl}methoxy)phenyl]propanoic acid]: 4.08 nM.

The target of another assay is Mcl-1 protein (Homo sapiens, UniProt Q07820). The assay is described as follows: Inhibition of Mcl-1 by the fluorescence polarisation technique. In kind it is binding. The conditions noted are these: fluorescence polarisation test; Fluorescein labelled ligand 1 nM, Mcl-1 protein 5 nM, ~2 hours at r.t.; read-out: IC50 (M) Mcl-1 FP. As for the experimental part:
The relative binding potency of each compound was determined via Fluorescence Polarisation (FP). The method utilised a Fluorescein labelled ligand (Fluorescein-βAla-Ahx-A-REIGAQLRRMADDLNAQY-OH; mw 2,765) which binds to the Mcl-1 protein (such that Mcl-1 corresponds to the UniProtKB® primary accession number: Q07820) leading to an increased anisotropy measured in milli-polarisation (mP) units using a reader. The addition of a compound which binds competitively to the same site as the ligand will result in a greater proportion of unbound ligand in the system indicated by a decrease in mP units.
An 11 point serial dilution of each compound was prepared in DMSO and 2 μl transferred into flat bottomed, low binding, 384-well plate (final DMSO concentration 5%). 38 μl of buffer (10 mM 4-(2-hydroxyethyl)-1-piperazineethanesulfonic acid [HEPES], 150 mM NaCl, 0.05% Tween 20, pH 7.4), containing the Fluorescein labelled ligand (final concentration 1 nM) and Mcl-1 protein (final concentration 5 nM) was then added.
Assay plates were incubated ˜2 hours at r.t. before FP was measured on a Biomek Synergy2 reader (Ex. 528 nm, Em. 640 nm, Cut off 510 nm) and mP units calculated. The binding of increasing doses of test compound was expressed as a percentage reduction in mP compared to a window established between ‘5% DMSO only’ and ‘100% inhibition’ controls. 11-point dose response curves were plotted with XL-Fit software using a 4-Parameter Logistic Model (Sigmoidal Dose-Response Model) and the inhibitory concentrations that gave a 50% reduction in mP (IC50) were determined.
In general terms: Fluorescence polarisation rises when a labelled molecule tumbles more slowly, as on binding a larger partner.
Take `Cc1c(-c2c(-c3ccc(F)cc3)sc3ncnc(OC(Cc4ccccc4OCc4ccnc(-c5cccc(O)c5)n4)C(=O)O)c23)ccc(OCCN2CCN(C)CC2)c1Cl` [Example 1, (2R)-2-{[(5Sa)-5-{3-chloro-2-methyl-4-[2-(4-methylpiperazin-1-yl)ethoxy]phenyl}-6-(4-fluorophenyl)thieno[2,3-d]pyrimidin-4-yl]oxy}-3-(2-{[2-(3-hydroxyphenyl)pyrimidin-4-yl]methoxy}phenyl)propanoic acid]: the concentration for half-maximal inhibition (IC50) worked out at 8.4e-09 M.
For the molecule `Cc1c(-c2c(-c3ccc(F)cc3)sc3ncnc(OC(Cc4ccccc4OCc4ccnc(-c5ccc(O)cc5)n4)C(=O)O)c23)ccc(OCCN2CCN(C)CC2)c1Cl` [Example 2, (2R)-2-{[(5Sa)-5-{3-chloro-2-methyl-4-[2-(4-methylpiperazin-1-yl)ethoxy]phenyl}-6-(4-fluorophenyl)thieno[2,3-d]pyrimidin-4-yl]oxy}-3-(2-{[2-(4-hydroxyphenyl)pyrimidin-4-yl]methoxy}phenyl)propanoic acid], the IC50 came out at 1.32e-08 M.
As to `Cc1c(-c2c(-c3ccc(F)cc3)sc3ncnc(OC(Cc4ccccc4OCc4ccnc(-c5cccc(CO)c5)n4)C(=O)O)c23)ccc(OCCN2CCN(C)CC2)c1Cl` [Example 3, (2R)-2-{[(5Sa)-5-{3-chloro-2-methyl-4-[2-(4-methylpiperazin-1-yl)ethoxy]phenyl}-6-(4-fluorophenyl)thieno[2,3-d]pyrimidin-4-yl]oxy}-3-[2-({2-[3-(hydroxymethyl)phenyl]pyrimidin-4-yl}methoxy)phenyl]propanoic acid], the half-maximal inhibitory concentration (IC50) was determined as 4.05e-09 M.
For `COCCOCCOCCOc1cccc(-c2nccc(COc3ccccc3CC(Oc3ncnc4sc(-c5ccc(F)cc5)c(-c5ccc(OCCN6CCN(C)CC6)c(Cl)c5C)c34)C(=O)O)n2)c1` [Example 48, (2R)-2-{[(5Sa)-5-{3-chloro-2-methyl-4-[2-(4-methylpiperazin-1-yl)ethoxy]phenyl}-6-(4-fluorophenyl)thieno[2,3-d]pyrimidin-4-yl]oxy}-3-(2-{[2-(3-{2-[2-(2-methoxyethoxy)ethoxy]ethoxy}phenyl)pyrimidin-4-yl]methoxy}phenyl)propanoic acid], the IC50 is 3.85e-09 M.
Same read-out and setting: next, `Cc1c(-c2c(-c3ccc(F)cc3)sc3ncnc(OC(Cc4ccccc4OCc4ccnc(-c5cccc(OCCN(CCO)CCO)c5)n4)C(=O)O)c23)ccc(OCCN2CCN(C)CC2)c1Cl` [Example 49, (2R)-3-(2-{[2-(3-{2-[bis(2-hydroxyethyl)amino]ethoxy}phenyl)pyrimidin-4-yl]methoxy}phenyl)-2-{[(5Sa)-5-{3-chloro-2-methyl-4-[2-(4-methylpiperazin-1-yl)ethoxy]phenyl}-6-(4-fluorophenyl)thieno[2,3-d]pyrimidin-4-yl]oxy}propanoic acid]: 4.65e-09 M; `Cc1c(-c2c(-c3ccc(F)cc3)sc3ncnc(OC(Cc4ccccc4OCc4ccnc(-c5cccc(OCCN6CCOCC6)c5)n4)C(=O)O)c23)ccc(OCCN2CCN(C)CC2)c1Cl` [Example 51, (2R)-2-{[(5Sa)-5-{3-chloro-2-methyl-4-[2-(4-methylpiperazin-1-yl)ethoxy]phenyl}-6-(4-fluorophenyl)thieno[2,3-d]pyrimidin-4-yl]oxy}-3-{2-[(2-{3-[2-(morpholin-4-yl)ethoxy]phenyl}pyrimidin-4-yl)methoxy]phenyl}propanoic acid]: 4.15e-09 M; `Cc1c(-c2c(-c3ccc(F)cc3)sc3ncnc(OC(Cc4ccccc4OCc4ccnc(-c5cccc(OCCN(C)C)c5)n4)C(=O)O)c23)ccc(OCCN2CCN(C)CC2)c1Cl` [Example 52, (2R)-2-{[(5Sa)-5-{3-chloro-2-methyl-4-[2-(4-methylpiperazin-1-yl)ethoxy]phenyl}-6-(4-fluorophenyl)thieno[2,3-d]pyrimidin-4-yl]oxy}-3-{2-[(2-{3-[2-(dimethylamino)ethoxy]phenyl}pyrimidin-4-yl)methoxy]phenyl}propanoic acid]: 3.7e-09 M.
Consider `Cc1c(-c2c(-c3ccc(F)cc3)sc3ncnc(OC(Cc4ccccc4OCc4ccnc(-c5ccc(OCCN(CCO)CCO)cc5)n4)C(=O)O)c23)ccc(OCCN2CCN(C)CC2)c1Cl` [Example 53, (2R)-3-(2-{[2-(4-{2-[bis(2-hydroxyethyl)amino]ethoxy}phenyl)pyrimidin-4-yl]methoxy}phenyl)-2-{[(5Sa)-5-{3-chloro-2-methyl-4-[2-(4-methylpiperazin-1-yl)ethoxy]phenyl}-6-(4-fluorophenyl)thieno[2,3-d]pyrimidin-4-yl]oxy}propanoic acid], for which the IC50 turned out to be 4.65e-09 M.
The same measure, in the same setting: next, `Cc1c(-c2c(-c3ccc(F)cc3)sc3ncnc(OC(Cc4ccccc4OCc4ccnc(-c5ccc(OCCOCCOCCO)cc5)n4)C(=O)O)c23)ccc(OCCN2CCN(C)CC2)c1Cl` [Example 54, (2R)-2-{[(5Sa)-5-{3-chloro-2-methyl-4-[2-(4-methylpiperazin-1-yl)ethoxy]phenyl}-6-(4-fluorophenyl)thieno[2,3-d]pyrimidin-4-yl]oxy}-3-(2-{[2-(4-{2-[2-(2-hydroxyethoxy)ethoxy]ethoxy}phenyl)pyrimidin-4-yl]methoxy}phenyl)propanoic acid]: 4.6e-09 M; `Cc1c(-c2c(-c3ccc(F)cc3)sc3ncnc(OC(Cc4ccccc4OCc4ccnc(-c5ccc(OCC6COC(C)(C)O6)cc5)n4)C(=O)O)c23)ccc(OCCN2CCN(C)CC2)c1Cl` [Example 55, (2R)-2-{[(5Sa)-5-{3-chloro-2-methyl-4-[2-(4-methylpiperazin-1-yl)ethoxy]phenyl}-6-(4-fluorophenyl)thieno[2,3-d]pyrimidin-4-yl]oxy}-3-{2-[(2-{4-[(2,2-dimethyl-1,3-dioxolan-4-yl)methoxy]phenyl}pyrimidin-4-yl)methoxy]phenyl}propanoic acid]: 6.35e-09 M.
Still for that read-out and setting: next, `Cc1c(-c2c(-c3ccc(F)cc3)sc3ncnc(OC(Cc4ccccc4OCc4ccnc(-c5ccc(OCCN6CCOCC6)cc5)n4)C(=O)O)c23)ccc(OCCN2CCN(C)CC2)c1Cl` [Example 56, (2R)-2-{[(5Sa)-5-{3-chloro-2-methyl-4-[2-(4-methylpiperazin-1-yl)ethoxy]phenyl}-6-(4-fluorophenyl)thieno[2,3-d]pyrimidin-4-yl]oxy}-3-{2-[(2-{4-[2-(morpholin-4-yl)ethoxy]phenyl}pyrimidin-4-yl)methoxy]phenyl}propanoic acid]: 4.75e-09 M.
On the same count and under the same terms, next, `CCOC(=O)OC(C)OC(=O)C(Cc1ccccc1OCc1ccnc(-c2cccc(OC(COC)COC)c2)n1)Oc1ncnc2sc(-c3ccc(F)cc3)c(-c3ccc(OCCN4CCN(C)CC4)c(Cl)c3C)c12` [Example 69, 1-[(ethoxycarbonyl)oxy]ethyl (2R)-2-{[(5Sa)-5-{3-chloro-2-methyl-4-[2-(4-methylpiperazin-1-yl)ethoxy]phenyl}-6-(4-fluorophenyl)thieno[2,3-d]pyrimidin-4-yl]oxy}-3-{2-[(2-{3-[(1,3-dimethoxypropan-2-yl)oxy]phenyl}pyrimidin-4-yl)methoxy]phenyl}propanoate]: 7.6e-08 M; `Cc1c(-c2c(-c3ccc(F)cc3)sc3ncnc(OC(Cc4ccccc4OCc4ccnc(-c5cncc(CO)c5)n4)C(=O)O)c23)ccc(OCCN2CCN(C)CC2)c1Cl` [Example 79, (2R)-2-{[(5Sa)-5-{3-chloro-2-methyl-4-[2-(4-methylpiperazin-1-yl)ethoxy]phenyl}-6-(4-fluorophenyl)thieno[2,3-d]pyrimidin-4-yl]oxy}-3-[2-({2-[5-(hydroxymethyl)pyridin-3-yl]pyrimidin-4-yl}methoxy)phenyl]propanoic acid]: 7.6e-09 M.
Consider `Cc1c(-c2c(-c3ccc(F)cc3)sc3ncnc(OC(Cc4ccccc4OCc4ccnc(-c5cnc(CO)nc5)n4)C(=O)O)c23)ccc(OCCN2CCN(C)CC2)c1Cl` [Example 82, (2R)-2-{[(5Sa)-5-{3-chloro-2-methyl-4-[2-(4-methylpiperazin-1-yl)ethoxy]phenyl}-6-(4-fluorophenyl)thieno[2,3-d]pyrimidin-4-yl]oxy}-3-(2-{[2′-(hydroxymethyl)-2,5′-bipyrimidin-4-yl]methoxy}phenyl)propanoic acid], for which the half-maximal inhibitory concentration (IC50) was determined as 7.7e-09 M.
On the same count and under the same terms, next, “(2R)-2-{[(5Sa)-5-{2,3-dimethyl-4-[2-(4-methylpiperazin-1-yl)ethoxy]phenyl}-6-(4-fluorophenyl)thieno[2,3-d]pyrimidin-4-yl]oxy}-3-{2-[(2-{3-[({[2-(piperidin-1-yl)ethyl]carbamoyl}oxy)methyl]phenyl}pyrimidin-4-yl)methoxy]phenyl}propanoic acid [Example 50]”: 6.6e-09 M.
